# How the values were obtained:
# [1] = tested on: rat; conditions: Sub-acute repeat dose toxicity; fischer; Oral; Gavage/Intubation; dose end: 16 day; group: systemic; systemic / pathology microscopic / stomach / hyperkeratosis + systemic / pathology microscopic / stomach / hyperplasia + systemic / …
# [2] = tested on: mouse; conditions: Carcinogenicity; b6c3f1; Oral; Gavage/Intubation; dose end: 103 week; group: systemic; systemic / pathology microscopic / stomach / acanthosis + systemic / pathology microscopic / stomach / hyperkeratosis + systemic / pathology…
# [3] = tested on: rat; conditions: Prenatal developmental toxicity study, sprague dawley, Oral, Gavage/Intubation, dose end: 15 GD
# [4] = tested on: rat; conditions: Carcinogenicity, fischer, Oral, Gavage/Intubation, dose end: 103 week, group: systemic
# [5] = tested on: rat; conditions: Subchronic oral toxicity in rodents, fischer, Gavage/Intubation, dose end: 13 week, group: systemic
# [6] = tested on: mouse; conditions: Sub-acute repeat dose toxicity; b6c3f1; Oral; Gavage/Intubation; dose end: 16 day; group: systemic; systemic / pathology gross / stomach / erosion + systemic / pathology gross / stomach / ulcer + systemic / pathology microscopic / stomach…
# [7] = tested on: rat; conditions: Subchronic dermal toxicity, sprague dawley, Topical, dose end: 13 week, group: systemic, systemic / pathology microscopic / liver / inflammation + systemic / pathology microscopic / liver / necrosis + systemic / in life …
# [8] = tested on: mouse; conditions: Subchronic oral toxicity in rodents, b6c3f1, Gavage/Intubation, dose end: 13 week, group: systemic
# [9] = tested on: mouse; conditions: Carcinogenicity; b6c3f1; Oral; Feed; dose end: 103 week; group: systemic; systemic / pathology gross / urinary bladder / stones + systemic / pathology microscopic / urinary bladder / hyperplasia + systemic / …
# [10] = tested on: rat; conditions: Subchronic oral toxicity in rodents, fischer, Feed, dose end: 13 week, group: systemic, systemic / in life observation / body weight / body weight gain + systemic / pathology gross / urinary bladder / stones
# [11] = tested on: rat; conditions: Subchronic oral toxicity in rodents, fischer, Feed, dose end: 13 week, group: systemic
# [12] = tested on: mouse; conditions: Subchronic oral toxicity in rodents, b6c3f1, Feed, dose end: 13 week, group: systemic
# [13] = tested on: rat; conditions: Carcinogenicity, fischer, Oral, Feed, dose end: 103 week, group: systemic
# [14] = tested on: rat; conditions: Subchronic oral toxicity in rodents, fischer, Feed, dose end: 13 week, group: systemic; remark: listed apart in the source
# [15] = tested on: rat; conditions: Combined chronic toxicity/carcinogenicity, sprague dawley, Oral, Feed, dose end: 104 week, group: systemic
# [16] = tested on: rat; conditions: Subchronic oral toxicity in rodents, sprague dawley, Feed, dose end: 13 week, group: systemic
# [17] = tested on: dog; conditions: Chronic toxicity, beagle, Oral, Capsule, dose end: 52 week, group: systemic
# [18] = tested on: mouse; conditions: Carcinogenicity, other, Oral, Feed, dose end: 104 week, group: systemic
# [19] = tested on: dog; conditions: Subchronic oral toxicity in nonrodent, beagle, Capsule, dose end: 93 day, group: systemic
# [20] = group: developmental, systemic / in life observation / body weight / fetal weight
# [21] = group: maternal, systemic / in life observation / body weight / body weight gain + systemic / in life observation / food consumption / food consumption + …
# [22] = systemic / pathology microscopic / stomach / acanthosis + systemic / pathology microscopic / stomach / hyperplasia + systemic / pathology …
# [23] = systemic / pathology microscopic / stomach / acanthosis + systemic / pathology microscopic / stomach / hyperkeratosis
# [24] = systemic / pathology microscopic / stomach / acanthosis + systemic / pathology microscopic / stomach / hyperkeratosis + systemic / in life …
# [25] = systemic / organ weight / kidney / relative to body weight + systemic / organ weight / liver / relative to body weight
# [26] = systemic / organ weight / kidney / relative to body weight + systemic / organ weight / liver / relative to body weight + systemic / …
# [27] = systemic / pathology gross / urinary bladder / stones
# [28] = systemic / pathology gross / urinary bladder / stones + systemic / in life observation / body weight / body weight gain + systemic / …
# [29] = systemic / in life observation / body weight / body weight gain
# [30] = systemic / in life observation / body weight / body weight gain + systemic / pathology gross / urinary bladder / stones + systemic / …
# [31] = systemic / in life observation / body weight / body weight
# [32] = systemic / in life observation / body weight / body weight gain + systemic / in life observation / food consumption / food consumption + …
# [33] = systemic / in life observation / body weight / body weight + systemic / in life observation / food consumption / food consumption + systemic…
# [34] = systemic / in life observation / body weight / body weight + systemic / in life observation / clinical signs / distended abdomens + systemic…
# [35] = systemic / organ weight / kidney / relative to body weight
# [36] = systemic / clinical chemistry / alkaline phosphatase (alp/alk) / alkaline phosphatase (alp/alk) + systemic / clinical chemistry / …
# [37] = systemic / in life observation / body weight / body weight + systemic / organ weight / kidney / absolute + systemic / organ weight / liver…
# [38] = systemic / clinical chemistry / albumin / albumin + systemic / clinical chemistry / alkaline phosphatase (alp/alk) / alkaline phosphatase (…
# [39] = systemic / clinical chemistry / cholesterol / cholesterol
structure (smiles),measurement,setting,value
CC(=O)OC1CC(C)OC(C)O1 (configuration not stated) [Dimethoxane],LEL,[1],125 mg/kg/day
same,LOAEL,[1],250 mg/kg/day
same,NEL,[1],< 125 mg/kg/day
same,NOAEL,[1],125 mg/kg/day
same,LEL,[2],250 mg/kg/day
same,LOAEL,[2],250 mg/kg/day
same,NEL,[2],< 250 mg/kg/day
same,NOAEL,[2],< 250 mg/kg/day
same,LEL,[3]; [20],500 mg/kg/day
same,LOAEL,[3]; [20],500 mg/kg/day
same,NEL,[3]; [20],250 mg/kg/day
same,NOAEL,[3]; [20],250 mg/kg/day
same,LOAEL,"[3]; group: maternal, systemic / in life observation / body weight / body weight gain + systemic / in life observation / food consumption / food consumption",250 mg/kg/day
same,LEL,[3]; [21],250 mg/kg/day
same,NEL,[3]; [21],125 mg/kg/day
same,NOAEL,[3]; [21],125 mg/kg/day
same,LEL,[4]; systemic / pathology microscopic / stomach / acanthosis + systemic / pathology microscopic / stomach / hyperkeratosis + systemic / pathology…,125 mg/kg/day
same,LOAEL,[4]; [22],> 250 mg/kg/day
same,NOAEL,[4]; [22],≥ 250 mg/kg/day
same,LEL,[5]; [23],62 mg/kg/day
same,LOAEL,[5]; [23],250 mg/kg/day
same,NEL,[5]; [24],31 mg/kg/day
same,NOAEL,[5]; [24],125 mg/kg/day
same,LEL,[6],500 mg/kg/day
same,LOAEL,[6],500 mg/kg/day
same,NEL,[6],250 mg/kg/day
same,NOAEL,[6],250 mg/kg/day
same,LEL,[7],300 mg/kg/day
same,LOAEL,[7],300 mg/kg/day
same,NEL,[7],100 mg/kg/day
same,NOAEL,[7],100 mg/kg/day
same,LEL,[8]; [25],31 mg/kg/day
same,NEL,[8]; [25],< 31 mg/kg/day
same,LOAEL,[8]; [26],> 500 mg/kg/day
same,NOAEL,[8]; [26],≥ 500 mg/kg/day
Nc1nc(N)nc(N)n1 [Melamine],LEL,[9],338 mg/kg/day
same,LOAEL,[9],338 mg/kg/day
same,NEL,[9],< 338 mg/kg/day
same,NOAEL,[9],< 338 mg/kg/day
same,LEL,[10],875 mg/kg/day
same,LOAEL,[10],> 875 mg/kg/day
same,NEL,[10],500 mg/kg/day
same,NOAEL,[10],≥ 875 mg/kg/day
same,LEL,[11]; [27],75 mg/kg/day
same,LOAEL,[11]; [28],> 600 mg/kg/day
same,NEL,[11]; [28],37.5 mg/kg/day
same,NOAEL,[11]; [28],≥ 600 mg/kg/day
same,LEL,[12]; [29],900 mg/kg/day
same,NEL,[12]; [29],< 900 mg/kg/day
same,LOAEL,[12]; [30],> 2700 mg/kg/day
same,NOAEL,[12]; [30],≥ 2700 mg/kg/day
same,LEL,[13]; [31],112 mg/kg/day
same,NEL,[13]; [31],< 112 mg/kg/day
same,LOAEL,[13]; systemic / pathology microscopic / kidney / inflammation + systemic / pathology gross / urinary bladder / stones,225 mg/kg/day
same,LOAEL,[14]; [32],> 900 mg/kg/day
same,NOAEL,[14]; [32],≥ 900 mg/kg/day
same,LEL,[14]; [27],300 mg/kg/day
same,NEL,[14]; [27],< 300 mg/kg/day
CO/C=C(/C(=O)OC)c1ccccc1Oc1cc(Oc2ccccc2C#N)ncn1 [Azoxystrobin],NEL,[15]; systemic / clinical chemistry / aspartate aminotransferase (ast/sgot) / aspartate aminotransferase (ast/sgot) + systemic / clinical …,117 mg/kg/day
same,LOAEL,[15]; [33],82.4 mg/kg/day
same,NOAEL,[15]; [33],18.2 mg/kg/day
same,LOAEL,[16]; [34],211 mg/kg/day
same,NOAEL,[16]; [34],20.4 mg/kg/day
same,LEL,[16]; [35],22.4 mg/kg/day
same,NEL,[16]; [35],< 22.4 mg/kg/day
same,LOAEL,[17]; [36],200 mg/kg/day
same,NEL,[17]; [36],3 mg/kg/day
same,NOAEL,[17]; [36],25 mg/kg/day
same,LEL,[17]; systemic / organ weight / liver / absolute + systemic / clinical chemistry / cholesterol / cholesterol + systemic / clinical chemistry / …,25 mg/kg/day
same,LOAEL,[18]; [31],272 mg/kg/day
same,LEL,[18]; [37],272 mg/kg/day
same,NEL,[18]; [37],37.5 mg/kg/day
same,NOAEL,[18]; [37],37.5 mg/kg/day
same,LOAEL,[19]; [38],250 mg/kg/day
same,NOAEL,[19]; [38],50 mg/kg/day
same,LEL,[19]; [39],10 mg/kg/day
same,NEL,[19]; [39],< 10 mg/kg/day
